Measurements from patent US8815778B2, “PH modulation method to detect ligand-receptor binding” (The Texas A&M University System, priority 2008, dated 2014).
Read-outs that look alike come from different tables or passages of the source.

Key:
[1] = cited from earlier work; for τ0 (fluorescence lifetime): dye concentrations of about 10^−7 M; for φb (quantum yield of photobleaching) / μ (mean number of survived excitation cycles): in water at low irradiances; for μ (mean number of survived excitation cycles): μ calculated from φb
[2] = pH titration of Texas Red DHPE isomers in supported lipid bilayers (fluorescence); format: physicochemical
Experimental: The peak heights from the ortho-conjugated Texas Red® data in FIG. 5 may be used to obtain a titration curve for this isomer. […] To obtain the y-axis, the peak height at pH 3 was set to 1.0, and all other peak heights are relative to this value.
pH Titration and Buffer Preparation. […] These pH values were chosen to locate the pKA value of ortho-Texas Red® DHPE. The pH could be adjusted to the desired value by the dropwise addition of HCl or NaOH. The pH was measured with a standard glass electrode setup. […] Titration curves for the dye molecules in SLBs were obtained by systematically changing the pH of the bulk solution in a stepwise fashion. Fresh buffer was continuously flowed over the surface until no further changes in fluorescence intensity could be observed. […] Fluorescent micrographs of SLBs were captured with a standard epifluorescence microscope setup (Nikon Eclipse E800).
The fluorescence titration curve of the Texas Red® DHPE dye molecules was monitored in SLBs containing two narrow, parallel lines of bilayers with distinct dye chemistries. […] The second line was identical, but contained para-Texas Red® DHPE instead of the ortho isomer. The surrounding lipid matrix was a 1:1:1 mixture of DOPC, DPPC, and cholesterol.
In this case, however, a saturation concentration of IgG (500 nM) was first introduced into the bulk solution. Moreover, all fluorescence measurements as a function of pH were performed in the presence of 500 nM bulk protein concentration to ensure that the surface remained saturated with protein.
Titration Curves for ortho-Texas Red® DHPE. In a first set of experiments, the pH dependent responses of the ortho- and para-conjugated Texas Red® dyes were investigated in supported POPC bilayers with 0.5 mol % biotin-cap-PE. […] Bulk solutions at a given pH value were continuously flowed into the device until the fluorescence intensity remained constant. Fluorescence images at each pH value were then captured (FIG. 15a).
Titration Curve with a Saturated Protein Layer. […] First, two separated bilayer strips were formed as described above. […] All subsequent measurements were made by tuning the solution pH value, but keeping the bulk IgG concentration constant.

[3] = pH modulation assay of avidin and streptavidin on biotin-PE bilayers (turn on / turn off); format: binding; conditions: 1 μM protein
Text: In addition to being able to detect negatively charged proteins, experiments have also been performed showing that our pH modulation assay can detect positively charged proteins. In this case, the sensor works as a “turn off” rather than as a “turn on” sensor. To investigate this, the binding of avidin, which is a positively charged macromolecule, was studied. The conditions were similar to those described above except where explicitly stated. Under all conditions, a saturation concentration of avidin or streptavidin was employed (1 μM). The bilayers each contained 1 mol % biotin-PE and 0.03 mol % ortho-Texas Red® DHPE.
However, upon adding 20 mol % DOPS (a negatively charged lipid) to the membrane, the assay was rerun at pH 9.25. Under these conditions, it detects avidin in a “turn off” mode and streptavidin in a “turn on” mode.

[4] = literature values; cited from earlier work
[5] = biotin/streptavidin binding, literature; cited from earlier work
[6] = target: avidin (Gallus gallus, UniProt P02701); experiment: Homogeneous pH modulation assay in capillary tubes with Texas Red succinimidyl ester conjugated avidin; format: binding; conditions: for fluorescence intensity versus capillary without ligand: 3 μM ortho-Texas Red succinimidyl ester conjugated avidin, PBS pH 7.0
Sequence of avidin (P02701 25-152, species assumed): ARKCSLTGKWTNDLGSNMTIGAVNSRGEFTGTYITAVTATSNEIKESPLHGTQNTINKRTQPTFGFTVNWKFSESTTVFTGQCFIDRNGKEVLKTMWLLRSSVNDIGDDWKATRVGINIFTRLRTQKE
Text: The pH modulation detection assay is amenable monitoring protein-small molecule and protein-protein interactions homogeneously in aqueous solution.
Avidin was labeled with Texas Red® succinimidyl ester as follows: The ortho isomer of Texas Red® succinimidyl ester was separated from the para isomer via thin layer chromatography utilizing silica plates (TLC Silica Gel 60 F254, EMD Chemicals) and 8:92 (methanol:chloroform) solvent. The separated band was removed from the plates with a razor and the ortho-Texas Red® succinimidyl ester was eluted from the silica with the same methanol/chloroform solvent. The dye (21 μg) was dried down with nitrogen in a 2 mL reactive vial containing a magnetic stir bar. To this reaction vial was added 0.5 mL of a 2 mg/mL avidin solution in 1 M sodium bicarbonate. This solution was allowed to stir for two hours at room temperature before being separated in a column containing Bio-Rad BioGel® Fine size purification resin in phosphate buffered saline (PBS, 10 mM potassium phosphate, 150 mM NaCl, 2 mM sodium azide, pH 7.2). This PBS was utilized as the elution buffer as well. The collected Texas-Red® succinimidyl ester-labeled avidin was utilized in the sensing experiments.
The two rectangular capillaries were passivated with a surface coating of bovine serum albumin (BSA). The BSA was then thoroughly rinsed away with phosphate buffered saline (10 mM Na2HPO4, 150 mM NaCl, pH 7.0). Next, a 3 μM solution of ortho-Texas Red® succinimidyl ester conjugated avidin was introduced in PBS into both capillaries. The right capillary additionally contained a 200 μM concentration of biotin (vitamin B7). A line scan across the micrograph is shown on the right. […] It should be noted that avidin is a positively charged protein and the biotin is […] in solution near pH 7.0. Therefore, the local pH near the protein surface is lowered when the small molecule binds.
As a control, the same set of experiments was run as in FIG. 38. However, this time the avidin was conjugated with para-Texas Red® succinimidyl ester (FIG. 39). […]

[7] = pH 8.2, POPC, 1 mol % biotin-PE, 0.03 mol % ortho-Texas Red DHPE
[8] = pH 9.25, 20 mol % DOPS added to the membrane

| Compound | τ0 (fluorescence lifetime) [1] [ns] | φb (quantum yield of photobleaching) [1] | μ (mean number of survived excitation cycles) [1] | also measured |
| --- | --- | --- | --- | --- |
| Cc1cc(=O)[nH]c2cc(N)ccc12 [Carbostyril 124] | 5.0 | 1.4 × 10^−3 | 700 | σ01 (λ) ([1]; 335 nm): 6.3 (335 nm) 10^−17 cm^2 |
| ortho-sulforhodamine 101-DHPE [ortho-Texas Red® DHPE] | – | – | – | shift of apparent pKA to a more basic value ([2]; 20 mol % DOPS added to the membranes, with respect to FIG. 15b): 0.44 pH units; fluorescence intensity of the band as a function of bulk pH ([2]; POPC bilayers with 0.5 mol % biotin-cap-PE, pH 10.2 to 4.0): showed higher intensity at more acidic pH values; apparent pKA ([2]; SLB containing 0.5 mol % biotin-cap-PE on glass, pH 10.2 to 4.0, ortho/para ratio, FIG. 15b): 7.8±0.1; apparent shift of titration curve midpoint ([2]; saturated anti-biotin IgG layer (500 nM) versus no bound proteins): ~0.35 pH units; pKA of the dye ([2]; supported phospholipid bilayer, pH 3 to 11, FIG. 6): 7.8 |
| streptavidin: negatively charged biotin-binding protein | – | – | – | detection by the pH modulation assay [3, 7]: does not detect; detection by the pH modulation assay [3, 8]: turn on; isoelectric point (pI) [4]: 6.4; Kd [5]: ~1 pM |
| Coumarin 39 | 5.6 | 1.2 × 10^−3 | 800 | – |
| Rhodamine 123 | 4.0 | 6.4 × 10^−7 | 1 570 000 | σ01 (λ) ([1]; 515 nm): 12.3 (515 nm) 10^−17 cm^2 |
| O=C(O)CCCC[C@@H]1SC[C@@H]2NC(=O)N[C@@H]21 [biotin] | – | – | – | fluorescence intensity versus capillary without ligand ([6]; 200 μM biotin): approximately a factor of five higher; fluorescence difference between the two capillary tubes ([6]; avidin conjugated with para-Texas Red succinimidyl ester (control), saturation biotin): little if any fluorescence difference |
| Cc1cc(=O)oc2cc(N)ccc12 [Coumarin 120] | 5.0 | 3.4 × 10^−4 | 3 000 | σ01 (λ) ([1]; 365 nm): 3.9 (365 nm) 10^−17 cm^2 |
| biotinylated bovine serum albumin: biotinylated bovine serum albumin (BSA) | – | – | – | fluorescence intensity versus capillary without ligand ([6]; 500 μM biotinylated BSA): approximately a factor of eight higher |
| CN(C)c1ccc2c(-c3ccccc3C(=O)[O-])c3ccc(N(C)C)cc3[o+]c2c1 [TMR] | 2.3 | 3.3 × 10^−7 | 3 070 000 | σ01 (λ) ([1]; 515 nm): 13.3 (515 nm) 10^−17 cm^2 |
| avidin: positively charged biotin-binding protein | – | – | – | detection by the pH modulation assay [3, 7]: turn off mode; detection by the pH modulation assay [3, 8]: turn off; isoelectric point (pI) [4]: 10.4 |
| CCNc1cc2oc(=O)cc(C(F)(F)F)c2cc1C [Coumarin 307] | 4.5 | 1.5 × 10^−4 | 6 500 | σ01 (λ) ([1]; 397 nm): 5.4 (397 nm) 10^−17 cm^2 |
| Cc1cc(=O)oc2c3c4c(cc12)CCCN4CCC3 [Coumarin 102] | 5.5 | 4.3 × 10^−4 | 2 300 | σ01 (λ) ([1]; 397 nm): 7.0 (397 nm) 10^−17 cm^2 |
